Source: patent US20240174603A1 (Rappta Therapeutics Oy, priority 2021, published 2024)

Test system: LNCaP cells
Test: LNCaP cell viability assay (MTS)
Assay type: cell-based
Conditions: Homo sapiens, LNCaP, 48 h, LNCaP cell line
Summary of the method: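 LNCaP cells (5000/well) treated 24 h after plating with compound at 1–80 µM for 48 h. Relative cell number read by MTS; GI50 from four-parameter variable-slope log(inhibitor) fit with bottom constrained to zero.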

| Structure (SMILES) | GI50 |
| --- | --- |
| CC[C@H](NS(=O)(=O)c1ccc(OC(F)(F)F)cc1)c1cc(F)ccc1F [Compound 66, (S)—N-(1-(2,5-difluorophenyl)propyl)-4-(trifluoromethoxy)benzenesulfonamide] | 35 µM |
| CC(Cc1c(Cl)cccc1Cl)NS(=O)(=O)c1ccc(OC(F)(F)F)cc1 (centres unmarked) [Compound 67, N-(1-(2,6-dichlorophenyl)propan-2-yl)-4-(trifluoromethoxy)benzenesulfonamide] | 50 µM |
| CCOC(=O)CC(NS(=O)(=O)c1ccc(OC(F)(F)F)cc1)c1ccc(OC(C)C)c(OC)c1 (centres unmarked) [Compound 68, Ethyl 3-(4-isopropoxy-3-methoxyphenyl)-3-((4-(trifluoromethoxy)phenyl)sulfonamido)propanoate] | 72 µM |
| O=S(=O)(NC(c1cc(Cl)cc(Cl)c1)C1CCCCC1)c1ccc(OC(F)(F)F)cc1 (centres unmarked) [Compound 69, N-(cyclohexyl(3,5-dichlorophenyl)methyl)-4-(trifluoromethoxy)benzenesulfonamide] | 9 µM |
| CC(NS(=O)(=O)c1ccc(OC(F)(F)F)cc1)C1(c2ccc(Br)cc2)CC1 (centres unmarked) [Compound 70, N-(1-(1-(4-bromophenyl)cyclopropyl)ethyl)-4-(trifluoromethoxy)benzenesulfonamide] | 25 µM |
| C=CCCC(NS(=O)(=O)c1ccc(OC(F)(F)F)cc1)c1ccc(C(F)(F)F)cc1 (centres unmarked) [Compound 71, 4-(trifluoromethoxy)-N-(1-(4-(trifluoromethyl)phenyl)pent-4-en-1-yl)benzenesulfonamide] | 20 µM |
| O=S(=O)(NC(CC1CC1)c1cc(F)cc(Br)c1)c1ccc(OC(F)(F)F)cc1 (centres unmarked) [Compound 72, N-(1-(3-bromo-5-fluorophenyl)-2-cyclopropylethyl)-4-(trifluoromethoxy)benzenesulfonamide] | 17 µM |
| CCC[C@@H](NS(=O)(=O)c1ccc(OC(F)(F)F)cc1)c1ccc2c(c1)OCO2 [Compound 73, (R)—N-(1-(benzo[d][1,3]dioxol-5-yl)butyl)-4-(trifluoromethoxy)benzenesulfonamide] | 38 µM |
| Cc1ccc(CNS(=O)(=O)c2ccc(OC(F)(F)F)cc2)c(OCC(C)C)c1 [Compound 74, N-(2-isobutoxy-4-methylbenzyl)-4-(trifluoromethoxy)benzenesulfonamide] | 60 µM |
| Cc1ccc(CNS(=O)(=O)c2ccc(OC(F)(F)F)cc2)c(OCC2CC2)c1 [Compound 75, N-(2-(cyclopropylmethoxy)-4-methylbenzyl)-4-(trifluoromethoxy)benzenesulfonamide] | 30 µM |
| CCOc1ccccc1CNS(=O)(=O)c1ccc(OC(F)(F)F)cc1 [Compound 76, N-(2-ethoxybenzyl)-4-(trifluoromethoxy)benzenesulfonamide] | 60 µM |
| CC(C)(C)OC(=O)N1CC(CNS(=O)(=O)c2ccc(OC(F)(F)F)cc2)OC(C)(C)C1 (centres unmarked) [Compound 77, Tert-butyl 2,2-dimethyl-6-(((4-(trifluoromethoxy)phenyl)sulfonamido)methyl)morpholine-4-carboxylate] | 20 µM |
| CC(C)(C)Oc1ccccc1CNS(=O)(=O)c1ccc(OC(F)(F)F)cc1 [Compound 78, N-(2-(tert-butoxy)benzyl)-4-(trifluoromethoxy)benzenesulfonamide] | 46 µM |
| O=S(=O)(NCCCN(Cc1ccco1)CC1CCCO1)c1ccc(OC(F)(F)F)cc1 (centres unmarked) [Compound 79, N-(3-((furan-2-ylmethyl)((tetrahydrofuran-2-yl)methyl)amino)propyl)-4-(trifluoromethoxy)benzenesulfonamide] | 49 µM |
| O=S(=O)(NCC1(c2ccc(Br)cc2Cl)CC1)c1ccc(OC(F)(F)F)cc1 [Compound 80, N-((1-(4-bromo-2-chlorophenyl)cyclopropyl)methyl)-4-(trifluoromethoxy)benzenesulfonamide] | 23 µM |
| O=S(=O)(NCC1(Cc2ccc(Br)cc2)CC1)c1ccc(OC(F)(F)F)cc1 [Compound 81, N-((1-(4-bromobenzyl)cyclopropyl)methyl)-4-(trifluoromethoxy)benzenesulfonamide] | 40 µM |
| CS(=O)(=O)c1cc(CNS(=O)(=O)c2ccc(OC(F)(F)F)cc2)cc(C(F)(F)F)c1 [Compound 82, N-(3-(methylsulfonyl)-5-(trifluoromethyl)benzyl)-4-(trifluoromethoxy)benzenesulfonamide] | 64 µM |
| O=S(=O)(NCC1(CCOCc2ccccc2)CC1)c1ccc(OC(F)(F)F)cc1 [Compound 83, N-((1-(2-(benzyloxy)ethyl)cyclopropyl)methyl)-4-(trifluoromethoxy)benzenesulfonamide] | 38 µM |
| CC1(C)CC1(CNS(=O)(=O)c1ccc(OC(F)(F)F)cc1)c1ccc(F)cc1F (centres unmarked) [Compound 84, N-((1-(2,4-difluorophenyl)-2,2-dimethylcyclopropyl)methyl)-4-(trifluoromethoxy)benzenesulfonamide] | 18 µM |
| O=S(=O)(N[C@H](Cc1cc(F)c(F)cc1F)CC(F)(F)F)c1ccc(OC(F)(F)F)cc1 [Compound 85, (R)—N-(4,4,4-trifluoro-1-(2,4,5-trifluorophenyl)butan-2-yl)-4-(trifluoromethoxy)benzenesulfonamide] | 26 µM |
| O=S(=O)(NC(c1ccc(Cl)cc1)C1CCCC1)c1ccc(OC(F)(F)F)cc1 (centres unmarked) [Compound 86, N-((4-chlorophenyl)(cyclopentyl)methyl)-4-(trifluoromethoxy)benzenesulfonamide] | 75 µM |
| CC1CCN(c2ccccc2CNS(=O)(=O)c2ccc(OC(F)(F)F)cc2)CC1 [Compound 87, N-(2-(4-methylpiperidin-1-yl)benzyl)-4-(trifluoromethoxy)benzenesulfonamide] | 23 µM |
| O=S(=O)(NCC1(c2cc(C(F)(F)F)ccc2Cl)CC1)c1ccc(OC(F)(F)F)cc1 [Compound 88, N-((1-(2-chloro-5-(trifluoromethyl)phenyl)cyclopropyl)methyl)-4-(trifluoromethoxy)benzenesulfonamide] | 25 µM |
| O=S(=O)(NCCCOCCOCc1ccccc1)c1ccc(OC(F)(F)F)cc1 [Compound 89, N-(3-(2-(benzyloxy)ethoxy)propyl)-4-(trifluoromethoxy)benzenesulfonamide] | 48 µM |
| CCn1nc(C(F)(F)F)cc1COCCNS(=O)(=O)c1ccc(OC(F)(F)F)cc1 [Compound 90, N-(2-((1-ethyl-3-(trifluoromethyl)-1H-pyrazol-5-yl)methoxy)ethyl)-4-(trifluoromethoxy)benzenesulfonamide] | 28 µM |
| O=S(=O)(NCC1CN(Cc2ccccc2)CC12CCC2)c1ccc(OC(F)(F)F)cc1 (centres unmarked) [Compound 91, N-((6-benzyl-6-azaspiro[3.4]octan-8-yl)methyl)-4-(trifluoromethoxy)benzenesulfonamide] | 28 µM |
| COC(=O)C(NS(=O)(=O)c1ccc(OC(F)(F)F)cc1)c1ccccc1Br (centres unmarked) [Compound 92, Methyl 2-(2-bromophenyl)-2-((4-(trifluoromethoxy)phenyl)sulfonamido)acetate] | 42 µM |
| CC(CC1CCCCN1C)NS(=O)(=O)c1ccc(OC(F)(F)F)cc1 (centres unmarked) [Compound 93, N-(1-(1-methylpiperidin-2-yl)propan-2-yl)-4-(trifluoromethoxy)benzenesulfonamide] | 34 µM |
| CCOC(=O)CC(NS(=O)(=O)c1ccc(OC(F)(F)F)cc1)c1cccc(C(F)(F)F)c1 (centres unmarked) [Compound 94, Ethyl 3-((4-(trifluoromethoxy)phenyl)sulfonamido)-3-(3-(trifluoromethyl)phenyl)propanoate] | 25 µM |
